Laboratory results as given in ChEMBL document CHEMBL5154723 (Bioorg Med Chem, 2022).

Assay: Inhibition of Influenza A virus H5N1 neuraminidase

SMILES	IC50 [µM]
O=C(CSc1nnc(-c2ccccc2)o1)NCCc1cccc(F)c1	3.58
O=C(CSc1nnc(-c2ccc(O)cc2)o1)NCCc1cccc(F)c1	0.027
CCC(CC)O[C@@H]1C=C(C(=O)O)C[C@H](N)[C@H]1NC(C)=O [OSELTAMIVIR CARBOXYLATE]	0.082
Cc1ccc(-c2nnc(SCC(=O)NCc3ccc(Cl)c(Cl)c3)o2)cc1	2.05
O=C(CSc1nnc(-c2ccc(O)cc2)o1)NCc1ccc(Cl)c(Cl)c1	1.18
O=C(CSc1nnc(-c2ccccc2)o1)NCc1ccc(Cl)c(Cl)c1	0.13
COc1cccc(CCNC(=O)CSc2nnc(-c3ccc(F)cc3)o2)c1	56.7
COc1cccc(CCNC(=O)CSc2nnc(-c3ccc(O)cc3)o2)c1	0.36
Cc1cc([N+](=O)[O-])ccc1NC(=O)CSc1nnc(COc2ccc3ccccc3c2)o1	6.15
COc1cccc(CCNC(=O)CSc2nnc(-c3ccc(C)cc3)o2)c1	150
O=C(CSc1nnc(-c2ccc(F)cc2)o1)NCc1ccc(Cl)c(Cl)c1	0.45
O=C(CSc1nnc(-c2ccc(Cl)cc2)o1)NCc1ccc(Cl)c(Cl)c1	0.032
COc1ccc(-c2nnc(SCC(=O)NCc3ccc(Cl)c(Cl)c3)o2)cc1	3.95
COc1cccc(CCNC(=O)CSc2nnc(-c3ccccc3)o2)c1	0.26
